Measured values: ChEMBL document CHEMBL1201862, “PubChem BioAssay data set” (2004)
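Each compound was tested at five concentrations against cells in 96-well plates for 48 hours. GI50 marks 50% less growth.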 Calls of active or inactive are those of the source. No stated cut-off is given here; in the data, active = GI50 up to about 1.1 µM and inactive = higher.

Legend:
Assay in all cases: NCI-60 cell line screen, 48 h
HOP-92 = tested on: HOP-92
HOP-62 = tested on: HOP-62
OVCAR-5 = tested on: OVCAR-5
COLO 205 = tested on: COLO 205
XF498 = tested on: XF498
HL-60 = tested on: HL-60
OVCAR-8 = tested on: OVCAR-8
KM12 = tested on: KM12
M19-MEL = tested on: M19-MEL
HCT-116 = tested on: HCT-116
SK-MEL-28 = tested on: SK-MEL-28
RPMI-8226 = tested on: RPMI-8226
OVCAR-4 = tested on: OVCAR-4
DMS-114 = tested on: DMS-114
U-251 = tested on: U-251
IGROV-1 = tested on: IGROV-1
HT-29 = tested on: HT-29
A549 = tested on: A549
SF-539 = tested on: SF-539
SK-MEL-5 = tested on: SK-MEL-5
SK-OV-3 = tested on: SK-OV-3
HCT-15 = tested on: HCT-15
TK-10 = tested on: TK-10
Malme-3M = tested on: Malme-3M
KM-20L2 = tested on: KM-20L2
UO-31 = tested on: UO-31
SNB-75 = tested on: SNB-75
MOLT-4 = tested on: MOLT-4
RXF 631 = tested on: RXF 631
UACC-257 = tested on: UACC-257
SN12C = tested on: SN12C
SF-295 = tested on: SF-295
DMS-273 = tested on: DMS-273
CCRF-CEM = tested on: CCRF-CEM
K562 = tested on: K562
M14 = tested on: M14
RXF 393 = tested on: RXF 393
SF-268 = tested on: SF-268
UACC-62 = tested on: UACC-62
CAKI-1 = tested on: CAKI-1
SK-MEL-2 = tested on: SK-MEL-2
NCI-H23 = tested on: NCI-H23
OVCAR-3 = tested on: OVCAR-3
SNB-19 = tested on: SNB-19
A498 = tested on: A498
HCC 2998 = tested on: HCC 2998
NCI-H226 = tested on: NCI-H226
NCI-H460 = tested on: NCI-H460
DLD-1 = tested on: DLD-1
786-0 = tested on: 786-0
LOX IMVI = tested on: LOX IMVI
SNB-78 = tested on: SNB-78
EKVX = tested on: EKVX
LXFL 529 = tested on: LXFL 529
NCI-H522 = tested on: NCI-H522

Cc1cc(NS(=O)(=O)c2ccc(Nc3c4ccccc4nc4c(C(=O)N5CCN(CCO)CC5)ccc(Cl)c34)cc2)no1
GI50 (HOP-92): > 100 µM (inactive)
GI50 (HOP-62): > 100 µM (inactive)
GI50 (OVCAR-5): > 100 µM (inactive)
GI50 (COLO 205): > 100 µM (inactive)
GI50 (XF498): > 100 µM (inactive)
GI50 (HL-60): 60.3 µM (inactive)
GI50 (OVCAR-8): > 100 µM (inactive)
GI50 (KM12): > 100 µM (inactive)
GI50 (M19-MEL): > 100 µM (inactive)
GI50 (HCT-116): > 100 µM (inactive)
GI50 (SK-MEL-28): > 100 µM (inactive)
GI50 (RPMI-8226): 70.1 µM (inactive)
GI50 (OVCAR-4): > 100 µM (inactive)
GI50 (DMS-114): > 100 µM (inactive)
GI50 (U-251): > 100 µM (inactive)
GI50 (IGROV-1): 96.2 µM (inactive)
GI50 (HT-29): > 100 µM (inactive)
GI50 (A549): > 100 µM (inactive)
GI50 (SF-539): > 100 µM (inactive)
GI50 (SK-MEL-5): 36.3 µM (inactive)
GI50 (SK-OV-3): > 100 µM (inactive)
GI50 (HCT-15): > 100 µM
GI50 (TK-10): > 100 µM (inactive)
GI50 (Malme-3M): > 100 µM (inactive)
GI50 (KM-20L2): > 100 µM (inactive)
GI50 (UO-31): > 100 µM (inactive)
GI50 (SNB-75): 29.6 µM (inactive)
GI50 (MOLT-4): 36.3 µM (inactive)
GI50 (RXF 631): 83.9 µM (inactive)
GI50 (UACC-257): > 100 µM (inactive)
GI50 (SN12C): 72.1 µM (inactive)
GI50 (SF-295): > 100 µM (inactive)
GI50 (DMS-273): > 100 µM (inactive)
GI50 (CCRF-CEM): 28.8 µM (inactive)
GI50 (K562): 48.4 µM (inactive)
GI50 (M14): > 100 µM (inactive)
GI50 (RXF 393): > 100 µM (inactive)
GI50 (SF-268): 98.9 µM (inactive)
GI50 (UACC-62): 42.5 µM (inactive)
GI50 (CAKI-1): > 100 µM (inactive)
GI50 (SK-MEL-2): 42.1 µM (inactive)
GI50 (NCI-H23): > 100 µM (inactive)
GI50 (OVCAR-3): > 100 µM (inactive)
GI50 (SNB-19): > 100 µM (inactive)
GI50 (A498): > 100 µM (inactive)
GI50 (HCC 2998): 71.8 µM (inactive)
GI50 (NCI-H226): > 100 µM (inactive)
GI50 (NCI-H460): > 100 µM (inactive)
GI50 (DLD-1): 52.5 µM (inactive)
GI50 (786-0): > 100 µM (inactive)

O=S(O)CCCCCSSc1ccc(Cl)cc1
GI50 (HOP-62): 22.4 µM (inactive)
GI50 (OVCAR-5): 21.1 µM (inactive)
GI50 (XF498): 13.7 µM (inactive)
GI50 (HL-60): 27.2 µM (inactive)
GI50 (KM12): 20.7 µM (inactive)
GI50 (M19-MEL): 28.4 µM (inactive)
GI50 (LOX IMVI): 16.4 µM (inactive)
GI50 (HCT-116): 25.2 µM (inactive)
GI50 (SK-MEL-28): 21.6 µM (inactive)
GI50 (SNB-78): 23.5 µM (inactive)
GI50 (OVCAR-4): 28.7 µM (inactive)
GI50 (U-251): 10.1 µM (inactive)
GI50 (HT-29): 26.6 µM (inactive)
GI50 (EKVX): 39.1 µM (inactive)
GI50 (SF-539): 16 µM (inactive)
GI50 (SK-OV-3): 56 µM (inactive)
GI50 (TK-10): 23.2 µM (inactive)
GI50 (Malme-3M): 23 µM (inactive)
GI50 (UO-31): 12.9 µM (inactive)
GI50 (SNB-75): 23.1 µM (inactive)
GI50 (RXF 631): 18.9 µM (inactive)
GI50 (UACC-257): 22.5 µM (inactive)
GI50 (SN12C): 16 µM (inactive)
GI50 (CCRF-CEM): 4.49 µM (inactive)
GI50 (LXFL 529): 13.7 µM (inactive)
GI50 (K562): > 100 µM (inactive)
GI50 (M14): 22.7 µM (inactive)
GI50 (RXF 393): 13.8 µM (inactive)
GI50 (SF-268): 10.7 µM (inactive)
GI50 (SK-MEL-2): 15.2 µM (inactive)
GI50 (NCI-H23): 19.8 µM (inactive)
GI50 (NCI-H522): 14.9 µM (inactive)
GI50 (OVCAR-3): 15.6 µM (inactive)
GI50 (SNB-19): 28 µM (inactive)
GI50 (A498): 17 µM (inactive)
GI50 (HCC 2998): 25.9 µM (inactive)
GI50 (NCI-H460): 36.9 µM (inactive)
GI50 (DLD-1): 21.5 µM (inactive)
